# Biological target: CXCR7 (Homo sapiens (Human), UniProt P25106)
# Test: PathHunter CHO-K1 CXCR7 β-arrestin assay (agonistic activity)
# Type: cell-based
# Settings: β-arrestin recruitment in PathHunter CHO-K1 CXCR7 β-arrestin cells, 90 minutes at 37° C., geometric mean values
# Method: The CXCI12 receptor and CXCR7 agonistic activities of the compounds of formula (I) are determined in accordance with the following experimental method.
# The assay is using the PathHunter™ CHO-K1 CXCR7 β-arrestin cell line from DiscoverX. The system is based on the Enzyme Fragment Complementation Technology. Two complementing fragments of the β-galactosidase enzyme are expressed within stably transfected cells. The larger portion of β-gal, termed EA for Enzyme Acceptor, is fused to the C-terminus of b-arrestin 2. The smaller fragment, termed ProLink™ tag, is fused to CXCR7 at the C-terminus. Upon activation, b-arrestin is recruited which forces the interaction of ProLink and EA, allowing complementation of the two fragments of b-gal and the formation of a functional enzyme which is capable of hydrolysing the substrate and generating a chemiluminescent signal.
# CHO-K1 CXCR7 β-arrestin cells are detached from culture dishes with a cell dissociation buffer (Invitrogen, #13151-014) and collected in growing medium (F12 HAMS 90% (v/v)/FCS 10% (v/v), Penicillin/streptomycin 1% (v/v)). 5000 cells per well (in 20 μl) are seeded in a 384 well plate (white-walled, clear bottom; BD Falcon #353274). The plate is incubated at 37° C./5% CO2 for 24 hours. Medium is then replaced by 20 μl OPTIMEM (Invitrogen #31985) for 3 to 4 hours. Test compounds are dissolved at 10 mM in DMSO and serially diluted in DMSO to 200× of the final concentration for dose response curves. Compounds are then diluted 1:33.3 in HBSS1X. 5 μl/well of HBSS1X/20 mM HEPES/0.2% BSA are added to the assay plate followed by addition of 5 μl/well of diluted compounds. CXCL12 (Peprotech #300-28A) may be used as a reference agonist. The plate is incubated for 90 minutes at 37° C. 12 μl of detection reagent (Path Hunter Detection Kit, DiscoveRx, #93-0001) is transferred to the assay plate and to the plate is incubated for 1 hour at room temperature. Luminescent signal is read in a microplate reader (FLUOstar Optima, bmg). The calculated EC50 values may fluctuate depending on the daily cellular assay performance. Fluctuations of this kind are known to those skilled in the art. Average EC50 values from several measurements are given as geometric mean values.
# CXCR7, sequence (P25106 whole entry): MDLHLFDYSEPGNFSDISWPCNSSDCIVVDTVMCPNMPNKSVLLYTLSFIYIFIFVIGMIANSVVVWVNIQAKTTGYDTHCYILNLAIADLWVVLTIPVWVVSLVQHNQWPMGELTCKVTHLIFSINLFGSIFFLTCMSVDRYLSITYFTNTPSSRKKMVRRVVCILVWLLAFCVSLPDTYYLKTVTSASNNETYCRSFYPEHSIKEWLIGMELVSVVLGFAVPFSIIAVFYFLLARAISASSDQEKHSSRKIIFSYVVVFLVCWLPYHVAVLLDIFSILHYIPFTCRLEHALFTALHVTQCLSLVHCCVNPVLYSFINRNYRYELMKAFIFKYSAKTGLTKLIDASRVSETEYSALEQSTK
# CXCR7, sequence (P32121 whole entry partner): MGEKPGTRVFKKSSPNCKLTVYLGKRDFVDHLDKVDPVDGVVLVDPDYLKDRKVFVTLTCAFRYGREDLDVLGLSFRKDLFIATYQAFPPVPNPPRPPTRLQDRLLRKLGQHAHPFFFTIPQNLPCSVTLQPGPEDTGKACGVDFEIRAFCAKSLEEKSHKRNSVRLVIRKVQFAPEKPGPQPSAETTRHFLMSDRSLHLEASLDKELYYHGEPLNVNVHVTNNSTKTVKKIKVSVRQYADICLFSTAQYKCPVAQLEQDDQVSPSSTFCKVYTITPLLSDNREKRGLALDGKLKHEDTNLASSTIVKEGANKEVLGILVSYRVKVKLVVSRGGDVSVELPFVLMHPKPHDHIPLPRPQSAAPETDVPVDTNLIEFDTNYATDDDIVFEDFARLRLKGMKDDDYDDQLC
row,SMILES,EC50 [nM]
1,"CN(C)CCN(Cc1ccccc1C(F)(F)F)C(=O)CNc1cccc2c1OCCN(CC1CC1)C2 [Example 84, 2-(4-Cyclopropylmethyl-2,3,4,5-tetrahydro-benzo[f][1,4]oxazepin-9-ylamino)-N-(2-dimethylamino-ethyl)-N-(2-trifluoromethyl-benzyl)-acetamide]",4
2,"CC(C)CN1CCOc2c(cccc2NCC(=O)N(CCN(C)C2CC2)Cc2ccccc2C(F)(F)F)C1 [Example 10, N-[2-(Cyclopropyl-methyl-amino)-ethyl]-2-(4-isobutyl-2,3,4,5-tetrahydro-benzo[f][1,4]oxazepin-9-ylamino)-N-(2-trifluoromethyl-benzyl)-acetamide]",58
3,"CCN1CCOc2c(cccc2NCC(=O)N(CCN(C(=O)OC(C)(C)C)C(C)C)Cc2ccccc2C(F)(F)F)C1 [Example 69, {2-[[2-(4-Ethyl-2,3,4,5-tetrahydro-benzo[f][1,4]oxazepin-9-ylamino)-acetyl]-(2-trifluoromethyl-benzyl)-amino]-ethyl}-isopropyl-carbamic acid tert-butyl ester]",430
4,"CC(C)CN1CCOc2c(cccc2NCC(=O)N(CCN(C)C)Cc2ncccc2Cl)C1 [Example 3, N-(3-Chloro-pyridin-2-ylmethyl)-N-(2-dimethylamino-ethyl)-2-(4-isobutyl-2,3,4,5-tetrahydro-benzo[f][1,4]oxazepin-9-ylamino)-acetamide]",9
5,"CC(C)CN1CCOc2c(cccc2NCC(=O)N(CCN(C)C)Cc2cccc(Br)c2)C1 [Example 8, N-(3-Bromo-benzyl)-N-(2-dimethylamino-ethyl)-2-(4-isobutyl-2,3,4,5-tetrahydro-benzo[f][1,4]oxazepin-9-ylamino)-acetamide]",36
6,"Cc1ccnc(CN(CCN(C)C)C(=O)CNc2cccc3c2OCCN(CC(C)C)C3)c1 [Example 14, N-(2-Dimethylamino-ethyl)-2-(4-isobutyl-2,3,4,5-tetrahydro-benzo[f][1,4]oxazepin-9-ylamino)-N-(4-methyl-pyridin-2-ylmethyl)-acetamide]",76
7,"CC(C)NCCN(Cc1ccccc1C(F)(F)F)C(=O)CNc1cccc2c1C(=O)N(CC1CC1)CCO2 [Example 34, 2-(4-Cyclopropylmethyl-5-oxo-2,3,4,5-tetrahydro-benzo[f][1,4]oxazepin-6-ylamino)-N-(2-isopropylamino-ethyl)-N-(2-trifluoromethyl-benzyl)-acetamide]",5
8,"CCN1CCOc2c(NCC(=O)N(CCN(C)C)Cc3ncccc3Cl)cccc2C1=O [Example 60, N-(3-Chloro-pyridin-2-ylmethyl)-N-(2-dimethylamino-ethyl)-2-(4-ethyl-5-oxo-2,3,4,5-tetrahydro-benzo[f][1,4]oxazepin-9-ylamino)-acetamide]",260
9,"CN(C)CCN(Cc1ccccc1C(F)(F)F)C(=O)CNc1cccc2c1CN(CC1CC1)CCO2 [Example 22, 2-(4-Cyclopropylmethyl-2,3,4,5-tetrahydro-benzo[f][1,4]oxazepin-6-ylamino)-N-(2-dimethylamino-ethyl)-N-(2-trifluoromethyl-benzyl)-acetamide]",4
10,"CC(C)CN1CCOc2c(cccc2NCC(=O)N(CCN2CCCC2=O)Cc2ccccc2C(F)(F)F)C1 [Example 11, 2-(4-Isobutyl-2,3,4,5-tetrahydro-benzo[f][1,4]oxazepin-9-ylamino)-N-[2-(2-oxo-pyrrolidin-1-yl)-ethyl]-N-(2-trifluoromethyl-benzyl)-acetamide]",190
11,"CN(C)CCN(Cc1ccccc1C(F)(F)F)C(=O)COc1cccc2c1CCN(CC1CC1)CC2 [Example 23, 2-(3-Cyclopropylmethyl-2,3,4,5-tetrahydro-1H-benzo[d]azepin-6-yloxy)-N-(2-dimethylamino-ethyl)-N-(2-trifluoromethyl-benzyl)-acetamide]",1
12,"CN(C)CCN(Cc1ccccc1C(F)(F)F)C(=O)CNc1cccc2c1OCCN(CC1CC1)C2=O [Example 61, 2-(4-Cyclopropylmethyl-5-oxo-2,3,4,5-tetrahydro-benzo[f][1,4]oxazepin-9-ylamino)-N-(2-dimethylamino-ethyl)-N-(2-trifluoromethyl-benzyl)-acetamide]",9
